The text below walks through data of ChEMBL document CHEMBL5046280, “Discovery of Small-Molecule Inhibitors of the PD-1/PD-L1 Axis That Promote PD-L1 Internalization and Degradation” (J Med Chem, 2022).

Series [1] has as its target Programmed cell death protein 1/Programmed cell death 1 ligand 1 (Homo sapiens, UniProt Q9NZQ7). As to the kind of experiment: Inhibition of PD-1/PD-L1 (unknown origin) interaction pre-incubated for 15 mins and measured after 90 mins by TR-FRET assay. The series is classed as protein-complex assay. Background: TR-FRET usually uses a lanthanide donor and a delayed reading to cut background.

Series [2] has as its target Programmed cell death 1 ligand 1 (Homo sapiens, UniProt Q9NZQ7). Nature of the series: Binding affinity to human PD-L1 assessed as dissociation constant by micro-scale thermophoresis analysis.
The target of series [3] is Programmed cell death 1 ligand 1 (Mus musculus, UniProt Q9EP73). Nature of the series: Binding affinity to mouse PD-L1 assessed as dissociation constant by micro-scale thermophoresis analysis.
A further series deals with MDA-MB-231. Nature of the series: Antitumor immunity against human MDA-MB-231 cells co-cultured with CD3/CD28/CD2 T cell activator stimulated human PMBC assessed as tumor cell viability measuring lactate dehydrogenase release measured for 14 hrs by PBMC killing assay relative to control. The series is classed as functional, cell-based.
Series [4] deals with CT26. Nature of the series: Antitumor activity against po dosed mouse CT26 cells implanted in BALB/c mouse assessed as tumor growth delay treated once daily for 2 weeks. In kind it is functional, organism-based. The conditions noted are these: dose 40-160 mg/kg.
The nature of series [5]: Toxicity in BALB/c mouse harbouring mouse CT26 cells assessed as change in body weight at 40 to 120 mg/kg, po administered once daily for 2 weeks. In kind it is organism-based. The conditions noted are these: in vivo, 336 h, dose 40-120 mg/kg.
Series [6] is described as follows: Toxicity in BALB/c mouse harbouring mouse CT26 cells assessed as mortality at 40 to 120 mg/kg, po administered once daily for 2 weeks. The series is classed as organism-based. The conditions noted are these: in vivo, 336 h, dose 40-120 mg/kg.
In series [7] the test system is CT26. Nature of the series: Antitumor activity against mouse CT26 cells implanted in BALB/c mouse assessed as reduction in tumor weight at 40 mg/kg, po administered once daily for 2 weeks. The arrangement: scale not given: the % may be the effect or the level left. The series is classed as functional.
Series [8] has as its system CT26. Nature of the series: Antitumor activity against mouse CT26 cells implanted in BALB/c mouse assessed as reduction in tumor weight at 80 mg/kg, po administered once daily for 2 weeks. The series is classed as functional. Also noted: scale not given: the % may be the effect or the level left.
In series [9] the test system is CT26. As to the kind of experiment: Antitumor activity against mouse CT26 cells implanted in BALB/c mouse assessed as reduction in tumor weight at 160 mg/kg, po administered once daily for 2 weeks. The series is classed as functional. The arrangement: scale not given: the % may be the effect or the level left.
For series [10], the system named is CT26. Nature of the series: Antitumor activity against mouse CT26 cells implanted in BALB/c mouse assessed as upregulation of human PD-L1 expression in tumor tissue at 40 mg/kg per day, po administered once daily for 2 weeks by Western blotting analysis. The series is classed as functional, organism-based.
The test system of series [11] is CT26. Nature of the series: Antitumor activity against mouse CT26 cells implanted in BALB/c mouse assessed as downregulation of human PD-L1 expression in tumor tissue at 80 mg/kg per day, po administered once daily for 2 weeks by Western blotting analysis. In kind it is functional, organism-based.
Series [12] relates to CT26. Nature of the series: Antitumor activity against mouse CT26 cells implanted in BALB/c mouse assessed as downregulation of human PD-Ll expression in tumor tissue at 160 mg/kg per day, po administered once daily for 2 weeks by Western blotting analysis. In kind it is functional, organism-based. On the technique in general: Immunoblotting shows a protein as a band on a membrane.

Series [13] deals with CT26. As to the kind of experiment: Antitumor activity against mouse CT26 cells implanted in BALB/c mouse assessed as increase in infiltration of CD8+ T cells level in tumor tissue po administered once daily for 2 weeks by flow cytometry. The note with it: dose 40-160 mg/kg. The series is classed as functional, organism-based. In general terms: A flow cytometer gives signals particle by particle.

Series [14] deals with CT26. Nature of the series: Antitumor activity against mouse CT26 cells implanted in BALB/c mouse assessed as inhibition of tumor cell growth in tumor tissue at 40 to 160 mg/kg, po administered once daily for 2 weeks by H and E staining based assay. The series is classed as functional, organism-based. The conditions noted are these: dose 40-160 mg/kg.
Series [15] relates to CT26. As to the kind of experiment: Antitumor immunity activity against mouse CT26 cells implanted in BALB/c mouse assessed as upregulation of CXCL9 mRNA at 160 mg/kg, po administered once daily for 2 weeks by qRT-PCR analysis. In kind it is functional, organism-based.
Series [16] deals with CT26. Nature of the series: Antitumor immunity activity against mouse CT26 cells implanted in BALB/c mouse assessed as upregulation of CXCL10 mRNA at 160 mg/kg, po administered once daily for 2 weeks by qRT-PCR analysis. In kind it is functional, organism-based.
The subject of series [17] is CT26. Nature of the series: Antitumor immunity activity against mouse CT26 cells implanted in BALB/c mouse assessed as upregulation of IFN-gamma mRNA at 160 mg/kg, po administered once daily for 2 weeks by qRT-PCR analysis. In kind it is functional, organism-based.
Series [18] has as its system B16-F10. Nature of the series: Antitumor activity against po dosed mouse B16-F10 cells implanted in […] mouse assessed as inhibition of tumor volume in presence of PD-L1 antibody administered once daily for 2 weeks. In kind it is functional, organism-based. The note with it: dose 40-160 mg/kg.
The test system of series [19] is B16-F10. Nature of the series: Antitumor activity against mouse B16-F10 cells implanted in […] mouse assessed as inhibition of tumor volume at 160 mg/kg, po administered once daily for 2 weeks. In kind it is functional, organism-based.
For series [20], the system named is B16-F10. Nature of the series: Antitumor activity against mouse B16-F10 cells implanted in […] mouse assessed as inhibition of tumor volume at 80 mg/kg, po administered once daily for 2 weeks in presence of PD-L1 antibody. The series is classed as functional, organism-based.
Series [21] has as its system B16-F10. Nature of the series: Antitumor activity against mouse B16-F10 cells implanted in […] mouse assessed as decrease in human PD-Ll expression in tumor at 80 mg/kg, po administered once daily for 2 weeks in presence of PD-L1 antibody by Western blotting analysis. The series is classed as functional, organism-based.
Series [22] has as its system B16-F10. As to the kind of experiment: Antitumor activity against po dosed mouse B16-F10 cells implanted in […] mouse assessed as increase in infiltration of CD8+ T cells level in tumor tissue administered once daily for 2 weeks by flow cytometry. In kind it is functional, organism-based. The note with it: dose 40-160 mg/kg.
For series [23], the system named is B16-F10. As to the kind of experiment: Antitumor activity against mouse B16-F10 cells implanted in […] mouse assessed as increase in infiltration of CD8+ T cells level in tumor tissue at 40 to 160 mg/kg,po administered once daily for 2 weeks in presence of PD-L1 antibody by flow cytometry. The series is classed as functional, organism-based. The note with it: dose 40-160 mg/kg.

Series [24] deals with B16-F10. As to the kind of experiment: Antitumor immunity activity against mouse B16-F10 cells implanted in […] mouse assessed as increase level of IFN-gamma level in tumor tissue at 40 to 160 mg/kg, po administered once daily for 2 weeks by flow cytometry. In kind it is functional, organism-based. The note with it: dose 40-160 mg/kg.
Series [25] has as its system B16-F10. As to the kind of experiment: Antitumor immunity activity against mouse B16-F10 cells implanted in […] mouse assessed as increase level of IFN-gamma mRNA at 40 to 160 mg/kg, po administered once daily for 2 weeks in presence of PD-L1 antibody by […]. The series is classed as functional, organism-based. The note with it: dose 40-160 mg/kg.
Series [26] concerns B16-F10. Nature of the series: Antitumor activity against mouse B16-F10 cells implanted in […] mouse assessed as decrease in nucleus to cytoplasm interaction in tumor cells at 40 to 160 mg/kg, po administered once daily for 2 weeks in presence of PD-L1 antibody by H and E staining based assay. The series is classed as functional, organism-based. The conditions noted are these: dose 40-160 mg/kg.

The subject of series [27] is B16-F10. Nature of the series: Antitumor activity against mouse B16-F10 cells implanted in […] mouse assessed as decrease in nucleus to cytoplasm interaction in tumor cells at 40 to 160 mg/kg,po administered once daily for 2 weeks by H and E staining based assay. In kind it is functional, organism-based. The note with it: dose 40-160 mg/kg.

Structures are written as SMILES. Activity calls are given as the source filed them. The rule behind the calls is not given here.

Programmed cell death protein 1/Programmed cell death 1 ligand 1, sequence (Q15116 whole entry): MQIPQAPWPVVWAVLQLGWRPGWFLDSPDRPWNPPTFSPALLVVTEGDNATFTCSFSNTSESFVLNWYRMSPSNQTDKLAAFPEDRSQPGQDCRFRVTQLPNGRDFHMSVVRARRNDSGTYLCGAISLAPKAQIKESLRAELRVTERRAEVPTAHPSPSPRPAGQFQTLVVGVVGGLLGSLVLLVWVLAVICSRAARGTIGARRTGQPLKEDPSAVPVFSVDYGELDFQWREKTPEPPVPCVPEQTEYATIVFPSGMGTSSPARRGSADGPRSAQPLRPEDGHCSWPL
Programmed cell death protein 1/Programmed cell death 1 ligand 1, sequence (Q9NZQ7 whole entry): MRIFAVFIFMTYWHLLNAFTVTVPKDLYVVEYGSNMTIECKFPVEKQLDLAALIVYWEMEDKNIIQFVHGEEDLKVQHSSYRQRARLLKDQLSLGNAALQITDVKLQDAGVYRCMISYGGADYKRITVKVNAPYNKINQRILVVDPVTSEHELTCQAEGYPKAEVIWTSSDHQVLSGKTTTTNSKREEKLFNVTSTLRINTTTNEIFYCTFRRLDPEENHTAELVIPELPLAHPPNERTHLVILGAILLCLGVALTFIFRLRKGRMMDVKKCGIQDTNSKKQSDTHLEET
Programmed cell death 1 ligand 1 (Mus musculus, UniProt Q9EP73), sequence (Q9EP73 whole entry): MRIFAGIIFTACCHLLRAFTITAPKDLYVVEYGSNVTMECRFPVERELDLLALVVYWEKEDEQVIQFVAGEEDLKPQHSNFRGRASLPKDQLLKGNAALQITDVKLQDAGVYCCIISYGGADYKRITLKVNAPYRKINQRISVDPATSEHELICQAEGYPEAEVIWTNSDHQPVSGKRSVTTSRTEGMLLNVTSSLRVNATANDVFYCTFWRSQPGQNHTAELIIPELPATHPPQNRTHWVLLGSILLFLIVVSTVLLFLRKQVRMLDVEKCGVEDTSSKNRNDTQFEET
Programmed cell death 1 ligand 1 (Homo sapiens, UniProt Q9NZQ7), sequence (Q9NZQ7 whole entry): as the sequence (Q9NZQ7 whole entry) above

On to `Cc1c(-c2ccccc2)cccc1-c1nnc(Nc2cccc(CN3CCOCC3)c2)o1`, for which half-maximal inhibition in series [1] (IC50) required 64.1 µM.
Take `Cc1c(-c2ccccc2)cccc1-c1nnc(Nc2cccc(CN3CC[C@@H](O)C3)c2)o1`: the half-maximal inhibitory concentration (IC50) (in general, the concentration that gives 50% inhibition) in series [1] was 46.4 µM.
Turning to `Cc1c(-c2ccccc2)cccc1-c1nnc(Nc2cccc(CNCCO)c2)o1`, half-maximal inhibition in [1] (IC50) required 27.8 µM. Also, the Kd (commonly the free concentration of one partner at which half of the binding sites on the other are occupied at equilibrium, for simple one-to-one binding) in series [2] came out at 0.025 µM; in series [3], 0.48 µM. The outcome in the series with MDA-MB-231, in the series on CT26 [11], in the series on CT26 [12], in the series on CT26 [15], with CT26 [16] and in the series on CT26 [17] was Active. In addition, the outcome in the series with B16-F10 [19], in the series on B16-F10 [20], with B16-F10 [21], in the series on B16-F10 [24], with B16-F10 [25] and in the series on B16-F10 [26] was Active. Also, the result in the series with B16-F10 [27] was Active. The Activity result was “Dose-Dependent Effect” in the series on CT26 [4]; “Non-Toxic” in [5]; “Non-Toxic” in [6]; 45% with CT26 [7]; 55% in the series on CT26 [8]; 75% in the series on CT26 [9]. Moreover, the Activity result in the series with CT26 [13], in the series on CT26 [14], with B16-F10 [18], in the series with B16-F10 [22] and in the series with B16-F10 [23] was “Dose-Dependent Effect” throughout. The result in the series with CT26 [10] was inactive.
The compound `Cc1c(-c2ccccc2)cccc1-c1nnc(Nc2ccc(CNCC(=O)O)cc2)o1` showed an IC50 in series [1] of 516 µM.
On the same count and under the same terms, the result for `Cc1c(-c2ccccc2)cccc1-c1nnc(Nc2cccc(CN[C@H](C)CO)c2)o1` reads 70 µM; that for `Cc1c(-c2ccccc2)cccc1-c1nnc(Nc2cccc(CNCC(=O)O)c2)o1`, 24.5 µM.
Still for that read-out and setting: for `Cc1c(-c2ccccc2)cccc1-c1nnc(Nc2ccc(CNCCO)cc2)o1` the value was 744 µM; for `CC(=O)NCCNCc1cccc(Nc2nnc(-c3cccc(-c4ccccc4)c3C)o2)c1`, 34.1 µM; for `CC(=O)NCCNCc1ccc(Nc2nnc(-c3cccc(-c4ccccc4)c3C)o2)cc1`, 1800 µM.
In the case of `COc1ccc(Nc2nnc(-c3ccc([N+](=O)[O-])cc3)o2)cc1`, the IC50 in [1] turned out to be 64.1 µM.
On the same count and under the same terms, for `Cc1c(-c2ccccc2)cccc1-c1nnc(Nc2cccc(CNCCCO)c2)o1` the value was 55.9 µM.
Turning to `Cc1c(-c2ccccc2)cccc1-c1nnc(Nc2cccc(CNCCN)c2)o1`, the half-maximal inhibitory concentration (IC50) in series [1] stood at 152 µM.
In the case of `Cc1c(-c2ccccc2)cccc1-c1nnc(Nc2cccc(CN(C)CCO)c2)o1`, the IC50 in [1] is 67.1 µM.
Still for that read-out and setting: the result for `COc1ccc(Nc2nnc(-c3cccc(-c4ccccc4)c3C)o2)cc1` reads 2.64 µM; that for `COc1ccc(Nc2nnc(-c3ccc(-c4ccccc4)c(C)c3)o2)cc1`, above 100 µM.
